From ChEMBL document CHEMBL4739717, “Methods of treating cartilage disorders through inhibition of clk and dyrk” (2020)

How the values were obtained:
[1] = Inhibition of IL1-beta induced MMP3 expression levels in human chondrocytes assessed as MMP3 levels incubated for 2hrs followed by IL1-beta stimulation and measured after overnight incubation by LANCE assay; format: functional, cell-based; settings: Chondrocyte
[2] = biological target: Dual specificity tyrosine-phosphorylation-regulated kinase 1A (Homo sapiens, UniProt Q13627); test: Inhibition of recombinant DYRK1A (unknown origin) using Ser/Thr 18 peptide as substrate incubated for 1 hr in presence of ATP by FRET assay
[3] = Effect on Wnt signaling pathway in human SW480 cells harbouring TCF/LEF luciferase reporter gene and SP5-Luc reporter gene incubated for 36 to 48 hrs by luminescence assay; format: cell-based
[4] = Induction of chondrogenesis in human MSC assessed as incubated for 6 days by rhodamine B and Nile red staining based imaging analysis; format: functional; settings: bmmsc

EC50 [1] [nM]	EC50 [2] [nM]	EC50 [3] [nM]	EC50 [4] [nM]	SMILES
898				CN1CCN(c2cc(C(=O)Nc3cc4c(Cl)c(-c5cnn(C)c5)ccc4cn3)ccn2)CC1
12.2				CN1CCN(c2cc(C(=O)Nc3cc4cc(-c5cnn(C6CC6)c5)ccc4cn3)ccn2)CC1
3000				Cc1cc(C(=O)Nc2cc3cc(-c4cnn(C)c4)ccc3cn2)cc(N2CCN(C)CC2)n1
3000				CN1CCCN(c2cc(C(=O)Nc3cc4cc(-c5cnn(C)c5)ccc4cn3)ccn2)CC1
3000				CN1CCC2(CC1)CN(c1cc(C(=O)Nc3cc4cc(-c5cnn(C)c5)ccc4cn3)ccn1)C2
		14		CN1CCC(n2cc(C(=O)Nc3cc4cc(-c5cnn(C)c5)ccc4cn3)cn2)CC1
3000				NC1CN(c2cc(C(=O)Nc3cc4cc(-c5cnco5)ccc4cn3)ccn2)C1
3000				O=C(Nc1cc2cc(-c3cncs3)ccc2cn1)c1ccc2c(c1)CNCC2
		381		O=C(Nc1cc2cc(-c3cncc(NC4CCNCC4)n3)ccc2cn1)C1CC(F)(F)C1
306				CN(C)CCNc1cc(C(=O)Nc2cc3cc(-c4cnn(C)c4)ccc3cn2)ccn1
10.5				Cc1ncc(-c2ccc3cnc(NC(=O)c4ccc(OC(C)C)cc4)cc3c2)n1C
9.5				CN1CCN(c2ccc(C(=O)Nc3cc4cc(-c5cnn(C)c5)ccc4cn3)cn2)CC1
3000				CN1CCc2cc(C(=O)Nc3cc4cc(-c5cn(C)nn5)ccc4cn3)ccc2C1
	1	80		CN1CCN(c2ccc(NC(=O)c3n[nH]c4ccc(-c5cncc(NC(=O)C6CC6)c5)cc34)cn2)CC1
	1	37		CN1CCN(Cc2ccc(NC(=O)c3n[nH]c4ccc(-c5cccnc5)cc34)cn2)CC1
11.5				CN1CCN(c2cc(C(=O)Nc3cc4cc(-c5cnn(C)c5N)ccc4cn3)ccn2)CC1
0.4				CN1CCN(c2cc(C(=O)Nc3cc4cc(-c5cnc(N)s5)ccc4cn3)ccn2)CC1
3000				Cn1cncc1-c1ccc2cnc(NC(=O)c3ccnc(N4CCN(C5CC5)CC4)c3)cc2c1
3000				CN1Cc2ccc(C(=O)Nc3cc4cc(-c5cncn5C)ccc4cn3)cc2C1
697				CN(C)C1CCN(c2cc(C(=O)Nc3cc4cc(-c5cnn(C)c5)ccc4cn3)ccn2)CC1
1370				Cn1ncc(-c2ccc3cnc(NC(=O)c4ccc(OC(F)F)cc4)cc3c2)c1CO
47.4				CN(C)Cc1ccc(C(=O)Nc2cc3cc(-c4cnn(C)c4)ccc3cn2)cc1
	1	289		O=C(Nc1cnccn1)c1n[nH]c2ccc(-c3cncc(CN4CCCCC4)c3)cc12

The next lines start with the molecule.

SMILES	EC50 [1] [nM]	EC50 [2] [nM]	EC50 [3] [nM]	EC50 [4] [nM]
O=C(Nc1cnccc1NC(=O)C1CC1)c1n[nH]c2ccc(-c3cccnc3)cc12		6	68	
CC(C)CC(=O)Nc1cncc(-c2cnc3[nH]nc(-c4cc5c(-c6cc(F)cc(CNS(C)(=O)=O)c6)nccc5[nH]4)c3c2)c1		19	1510	300
O=C(Nc1ccnnc1)c1n[nH]c2ccc(-c3cncc(CN4CCCCC4)c3)cc12		1	40	
CC(C)CC(=O)Nc1cncc(-c2ccc3[nH]nc(-c4nc5c(N6CCN(C)CC6)cccc5[nH]4)c3c2)c1		5	268	
CC(C)(C)C(=O)Nc1cncc(-c2ccc3[nH]nc(-c4nc5c(-c6ccc(F)cc6)cncc5[nH]4)c3c2)c1		55	4	100
O=C(Nc1ccc(N2CCC(O)CC2)nc1)c1n[nH]c2ccc(-c3cncc(CN4CCCCC4)c3)cc12		1	49	
Fc1cccc(-c2cncc3[nH]c(-c4n[nH]cc4C#Cc4cncc(OC5CCNCC5)c4)nc23)c1		56	4640	
O=C(Nc1cc2cc(-c3cncc(NCC4(F)CNC4)n3)ncc2cn1)C1CC1			383	
CNc1nc(NCc2ncccn2)c2c(-c3ccc4ncccc4c3)c[nH]c2n1		7	73.3	
O=C(Nc1ccc2c(c1)OCCO2)c1n[nH]c2ccc(-c3cncc(CN4CCCCC4)c3)cc12		3	125	
O=C(Nc1cncc(-c2ccc3[nH]nc(-c4cc5c(-c6cccnc6)nccc5[nH]4)c3c2)c1)c1ccccc1		19	421	
CCCC(=O)Nc1cncc(-c2cc3c(-c4nc5c(-c6cccc(F)c6)nccc5[nH]4)n[nH]c3cn2)c1		53	18.8	10
CN(C)CCOc1cncc(-c2cnc3[nH]nc(-c4nc5c(-c6cccc(F)c6)nccc5[nH]4)c3c2)c1		5	253	
CC(C)CC(=O)Nc1cncc(-c2cc3c(-c4cc5c(-c6cc(F)cc(CNS(C)(=O)=O)c6)cncc5[nH]4)n[nH]c3cn2)c1		99	> 10000	
COc1cncc(-c2cc3c(-c4nc5c(-c6cccc(F)c6)cncc5[nH]4)n[nH]c3cn2)c1		26	31.3	300
CN(C)Cc1cncc(NC(=O)c2n[nH]c3ccc(-c4cncc(CN5CCCC5)c4)cc23)c1		2	330	
CC(C)Nc1cncc(-c2ccc3cnc(NC(=O)C4CCN(CCF)CC4)cc3c2)n1			178	

SMILES	EC50 [1] [nM]	EC50 [2] [nM]	EC50 [3] [nM]	EC50 [4] [nM]
Nc1cncc(-c2cnc3[nH]nc(-c4cc5c(-c6ccncc6)cncc5[nH]4)c3c2)c1		3	> 10000	
O=C(Nc1ccnnc1)c1n[nH]c2ccc(-c3cccnc3)cc12		1	106	
CS(=O)(=O)NCc1cc(F)cc(-c2nccc3[nH]c(-c4n[nH]c5ncc(-c6cncc(OCc7ccccc7)c6)cc45)cc23)c1		97	3990	
Cc1ncc(NC(=O)c2n[nH]c3ccc(-c4cnc(C)n4C)cc23)s1		4	335	
CN(C)C(=O)Nc1cncc(-c2ccc3[nH]nc(C(=O)Nc4cccnc4)c3c2)c1		1	176	
CCNCc1cncc(-c2ccc3[nH]nc(-c4cc5cnccc5[nH]4)c3c2)c1		3	1040	10
CN(C)CCN(C)c1ccc(NC(=O)c2n[nH]c3ccc(-c4cncc(CN5CCCCC5)c4)cc23)cn1		1	65	
CC(C)CC(=O)Nc1cncc(-c2cnc3[nH]nc(-c4cc5c(-c6cc(F)cc(CNS(C)(=O)=O)c6)cncc5[nH]4)c3c2)c1		16	2510	
CS(=O)(=O)NCc1cc(F)cc(-c2nccc3[nH]c(-c4n[nH]c5ncc(-c6cncc(NC(=O)C7CCC7)c6)cc45)cc23)c1		16	3640	300
O=C(Nc1ccc(-c2ccccc2)nc1)c1n[nH]c2ccc(-c3cncc(CN4CCCCC4)c3)cc12		7	101	
CN1CCN(c2ccc(C(=O)Nc3cc4cc(-c5cnn6c5CN(CCF)CC6)ccc4cn3)cn2)CC1	3000			
CN(C)Cc1cncc(-c2cnc3[nH]nc(-c4nc5c(-c6ccsc6)cccc5[nH]4)c3c2)c1		83	32	300
CCNCc1cncc(-c2cnc3[nH]nc(-c4cc5c(-c6cc(F)cc(CNS(C)(=O)=O)c6)nccc5[nH]4)c3c2)c1		30	> 10000	300
Cc1n[nH]c2ccc(-c3cncc(N[C@H]4CC[C@H](O)CC4)n3)cc12		1	95	
O=C(Nc1cccnc1)c1n[nH]c2ccc(-c3cncc(NC(=O)N4CCOCC4)c3)cc12		2	1250	
Cc1cc2[nH]nc(C(=O)Nc3ccc(CN4CCCC4)cc3)c2cc1-c1cccnc1			1090	
